# Read-outs that look alike come from different tables or passages of the source. Positions of bridges follow the written chain, without caps; N, C: chain ends. Non-standard residues stand in square brackets, D forms with d. Residues, ends and D or L forms follow the SMILES beside them. 2Nal = N[C@@H](Cc1ccc2ccccc2c1)C(=O)O
# Experiments:
# [1] = format: cell-based; details: Escherichia coli (ATCC 25922)
# [2] = system: Methicillin-resistant Staphylococcus aureus MRSA (ATCC BAA-1556); format: cell-based
# Experimental: (§1) All bacteria pathogens tested clinically reported multi-drug resistant strains. The antibacterial activity was tested against Gram-negative strains namely; Pseudomonas aeruginosa (PSA), Klebsiella pneumoniae (KPC), Escherichia coli (E. coli) and Gram-positive Methicillin-resistant Staphylococcus aureus (MRSA). The minimum inhibitory concentration (MIC) is the lowest concentration of the antibiotic that inhibits microbial growths. MIC is determined by visual inspection or use of spectrophotometer plate reader to determine media turbidity. On the other hand, the minimum bactericidal concentration (MBC) is the lowest concentration that kills […] of bacterial growth. Cytotoxicity of peptides in the hepatic cell line, human skin fibroblast cell line, heart/myocardium cells, and human lung fibroblast cells is shown in FIGS. 36-46). […] (IFX-315)-Au-NP with antibiotics are shown in FIGS. 49-58 when the gold nanoparticles are formed by the peptide followed by addition of the antibiotic. […] (IFX-301) with antibiotics (1:1 ratio) first and then used in the synthesis of Au-NP in antibacterial activities is shown in FIGS. 59-68.
# (§2) The MBC is identified by determining the lowest concentration of antibacterial agent that reduces the viability (concentration of peptides necessary to achieve a bactericidal effect) of the initial bacterial inoculum by ≥99.9%.
# [3] = system: Escherichia coli (ATCC 25922); format: cell-based
# Experimental: as §1, §2
# [4] = system: Pseudomonas aeruginosa (ATCC 27883); format: cell-based; details: ATCC 27883
# Experimental: as §1, §2
# [5] = system: Klebsiella pneumoniae (ATCC BAA-1705); format: cell-based
# Experimental: as §1, §2
# [6] = system: Klebsiella pneumoniae (ATCC BAA-1705); details: ATCC BAA-1705
# [7] = system: Methicillin-resistant Staphylococcus aureus MRSA (ATCC BAA-1556); details: ATCC BAA-1556
# [8] = system: Pseudomonas aeruginosa (ATCC 27883); details: ATCC 27883
# [9] = system: Escherichia coli (ATCC 25922); details: ATCC 25922
# [10] = system: Pseudomonas aeruginosa (PSA, ATCC 27883); assay: Synergy checkerboard assay (FIC index); format: cell-based; details: Table 26, Pseudomonas aeruginosa (ATCC 27883)
# [11] = system: Escherichia coli (E. Coli, ATCC 25922); details: ATCC 25922
# [12] = system: Klebsiella pneumoniae (KPC, ATCC BAA-1705); details: Table 26, Klebsiella pneumoniae (ATCC BAA-1705)
# [13] = system: Pseudomonas aeruginosa (PSA, ATCC 27883); details: ATCC 27883
# [14] = system: Klebsiella pneumoniae (KPC, ATCC BAA-1705); details: ATCC BAA-1705
# [15] = system: Escherichia coli (E. Coli, ATCC 25922); details: Table 26, Escherichia coli (ATCC 25922)
# MRSA (ATCC BAA-1556) = details: Table 26, MRSA (ATCC BAA-1556)
# [16] = system: Methicillin-resistant Staphylococcus aureus MRSA (ATCC BAA-1556); details: ATCC BAA-1556; remark: listed apart in the source
# human red blood cells = system: human red blood cells; design: unit not given beside the values
# [17] = peptide in combination with antibiotics
KPC (ATCC BAA-1705) MIC [6],MRSA (ATCC BAA-1556) MIC [7],PSA (ATCC 27883 MIC) [8],E. coli (ATCC 25922) MIC [9],Molecule,MRSA (ATCC BAA-1556) MBC [2],E. coli (ATCC 25922) MBC [3],PSA (ATCC 27883) MBC [4],KPC (ATCC BAA-1705) MBC [5],also measured
,,,,Polymyxin B,,,,,"MIC, MgCl2 ([1]; MH broth + 1 mM MgCl2): 1.5 µg/mL; MIC, CaCl2 ([1]; MH broth + 2 mM CaCl2): 0.7 µg/mL; MIC, NH4Cl ([1]; MH broth + 6 mM NH4Cl): 0.7 µg/mL; MIC, NaCl ([1]; MH broth + 150 mM NaCl): 0.7 µg/mL; MIC, FBS ([1]; MH broth + FBS (25%)): 0.7 µg/mL; MIC, KCl ([1]; MH broth + […] KCl): 0.7 µg/mL; MIC, MH Media ([1]; MH broth, no supplement): 0.7 µg/mL"
16 µg/mL,64 µg/mL,512 µg/mL,256 µg/mL,N=C(N)NCCC[C@H](NC(=O)[C@H](CCCNC(=N)N)NC(=O)[C@H](CCCNC(=N)N)NC(=O)[C@H](CCCNC(=N)N)NC(=O)[C@@H](N)CS)C(=O)N[C@@H](Cc1c[nH]c2ccccc12)C(=O)N[C@@H](Cc1c[nH]c2ccccc12)C(=O)N[C@@H](Cc1c[nH]c2ccccc12)C(=O)N[C@@H](Cc1c[nH]c2ccccc12)C(=O)N[C@@H](CS)C(=O)O [IFX-328] (H-CRRRRWWWWC-OH),128 µg/mL,512 µg/mL,512 µg/mL,32 µg/mL,
32 µg/mL,16 µg/mL,128 µg/mL,16 µg/mL,N=C(N)NCCC[C@H](NC(=O)[C@H](CCCNC(=N)N)NC(=O)[C@H](CCCNC(=N)N)NC(=O)[C@@H](N)CCCNC(=N)N)C(=O)N[C@H]1CSSC[C@@H](C(=O)O)NC(=O)[C@H](Cc2c[nH]c3ccccc23)NC(=O)[C@H](Cc2c[nH]c3ccccc23)NC(=O)[C@H](Cc2c[nH]c3ccccc23)NC(=O)[C@H](Cc2c[nH]c3ccccc23)NC1=O [IFX-333] (H-RRRRCWWWWC-OH; disulfide 5-10),32 µg/mL,32 µg/mL,128 µg/mL,64 µg/mL,
,,,,"N=C(N)NCCC[C@@H]1NC(=O)[C@H](CCCNC(=N)N)NC(=O)[C@H](CCCNC(=N)N)NC(=O)[C@H](CCCCN)NC(=O)[C@H](Cc2c[nH]c3ccccc23)NC(=O)[C@H](Cc2c[nH]c3ccccc23)NC(=O)[C@H](Cc2c[nH]c3ccccc23)NC(=O)[C@H](Cc2c[nH]c3ccccc23)NC(=O)[C@H](CCCNC(=N)N)NC(=O)[C@H](CCCNC(=N)N)NC1=O [IFX-315, [R5W4K]] (cyclo(RRRRRWWWWK))",,,,,"MIC (peptide) ([10]; peptide alone): MIC = 16 ug/ml; FIC (peptide) [10, 17]: FIC = 4 ug/ml; Escherichia coli (ATCC 25922) MIC [11]: 16 µg/mL; MIC (peptide) ([12]; peptide alone): MIC = 64 ug/ml; FIC (peptide) [12, 17]: FIC = 16 ug/ml; MIC K. pneumoniae (ATCC BAA-1705) [6]: 32 µg/mL; MIC MRSA ATCC BAA-1556 [7]: 4 µg/mL; Pseudomonas aeruginosa (ATCC 27883) MIC [13]: 16 µg/mL; MIC P. aeruginosa ATCC 27883 [8]: 16 µg/mL; Klebsiella pneumoniae (ATCC BAA-1705) MIC [14]: 32 µg/mL; MIC (peptide) ([15]; peptide alone): MIC = 16 ug/ml; FIC (peptide) [15, 17]: FIC = 4 ug/ml; MIC (peptide) (MRSA (ATCC BAA-1556); peptide alone): MIC = 8 ug/ml; FIC (peptide) (MRSA (ATCC BAA-1556); [17]): FIC = 2 ug/ml; MRSA (ATCC BAA-1556) MIC [16]: 4 µg/mL; MIC E. coli ATCC 25922 [9]: 16 µg/mL"
,,,,"N=C(N)NCCC[C@@H]1NC(=O)[C@H](CCCNC(=N)N)NC(=O)[C@H](CCCNC(=N)N)NC(=O)[C@H](Cc2c[nH]c3ccccc23)NC(=O)[C@H](Cc2ccc3ccccc3c2)NC(=O)[C@H](Cc2ccc3ccccc3c2)NC(=O)[C@H](CCCNC(=N)N)NC1=O [IFX-031, c[Arg-Arg-Arg-Arg-NaI-NaI-Trp]] (cyclo(RRRR[2Nal][2Nal]W))",,,,,Escherichia coli (ATCC 25922) MIC [11]: 16 µg/mL; HC50 (human red blood cells): 350; MIC MRSA ATCC BAA-1556 [7]: 1.5 µg/mL; Pseudomonas aeruginosa (ATCC 27883) MIC [13]: 16 µg/mL; Klebsiella pneumoniae (ATCC BAA-1705) MIC [14]: 32 µg/mL; MRSA (ATCC BAA-1556) MIC [16]: 2 µg/mL
256 µg/mL,32 µg/mL,512 µg/mL,256 µg/mL,N=C(N)NCCC[C@@H]1NC(=O)[C@H](CCCNC(=N)N)NC(=O)[C@H](CCCNC(=N)N)NC(=O)[C@H](CCCNC(=N)N)NC(=O)[C@@H](N)CSSC[C@@H](C(=O)O)NC(=O)[C@H](Cc2c[nH]c3ccccc23)NC(=O)[C@H](Cc2c[nH]c3ccccc23)NC(=O)[C@H](Cc2c[nH]c3ccccc23)NC(=O)[C@H](Cc2c[nH]c3ccccc23)NC1=O [IFX-327] (H-CRRRRWWWWC-OH; disulfide 1-10),64 µg/mL,512 µg/mL,512 µg/mL,512 µg/mL,
64 µg/mL,16 µg/mL,128 µg/mL,32 µg/mL,N=C(N)NCCC[C@H](NC(=O)[C@H](CCCNC(=N)N)NC(=O)[C@H](CCCNC(=N)N)NC(=O)[C@@H](N)CCCNC(=N)N)C(=O)N[C@@H](CS)C(=O)N[C@@H](Cc1c[nH]c2ccccc12)C(=O)N[C@@H](Cc1c[nH]c2ccccc12)C(=O)N[C@@H](Cc1c[nH]c2ccccc12)C(=O)N[C@@H](Cc1c[nH]c2ccccc12)C(=O)N[C@@H](CS)C(=O)O [IFX-331] (H-RRRRCWWWWC-OH),32 µg/mL,32 µg/mL,265 µg/mL,128 µg/mL,

Molecule,KPC (ATCC BAA-1705) MIC [6],MRSA (ATCC BAA-1556) MIC [7],PSA (ATCC 27883 MIC) [8],E. coli (ATCC 25922) MIC [9],MRSA (ATCC BAA-1556) MBC [2],E. coli (ATCC 25922) MBC [3],PSA (ATCC 27883) MBC [4],KPC (ATCC BAA-1705) MBC [5],also measured
N=C(N)NCCC[C@@H]1NC(=O)[C@H](CCCNC(=N)N)NC(=O)[C@H](CCCNC(=N)N)NC(=O)[C@@H]2CSSC[C@H](NC(=O)[C@H](CCCNC(=N)N)NC1=O)C(=O)N[C@@H](Cc1c[nH]c3ccccc13)C(=O)N[C@@H](Cc1c[nH]c3ccccc13)C(=O)N[C@@H](Cc1c[nH]c3ccccc13)C(=O)N[C@@H](Cc1c[nH]c3ccccc13)C(=O)N2 [IFX-330] (cyclo(RRRCWWWWCR); disulfide 4-9),32 µg/mL,8 µg/mL,128 µg/mL,32 µg/mL,32 µg/mL,64 µg/mL,256 µg/mL,128 µg/mL,
N=C(N)NCCC[C@@H]1NC(=O)[C@H](CS)NC(=O)[C@H](Cc2c[nH]c3ccccc23)NC(=O)[C@H](Cc2c[nH]c3ccccc23)NC(=O)[C@H](Cc2c[nH]c3ccccc23)NC(=O)[C@H](Cc2c[nH]c3ccccc23)NC(=O)[C@H](CS)NC(=O)[C@H](CCCNC(=N)N)NC(=O)[C@H](CCCNC(=N)N)NC(=O)[C@H](CCCNC(=N)N)NC1=O [IFX-329] (cyclo(RRRCWWWWCR)),32 µg/mL,8 µg/mL,128 µg/mL,32 µg/mL,32 µg/mL,64 µg/mL,128 µg/mL,32 µg/mL,

# — patent US20220289794A1, “SYNTHETIC ANTIMICROBIAL PEPTIDES” (priority 2019, published 2022)
